Source: ChEMBL document CHEMBL1201862, “PubChem BioAssay data set” (2004)
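A five-concentration, 48-hour dose response in 96-well plates underlies each endpoint, interpolated linearly between surrounding concentrations. Here, GI50 denotes the concentration required for 50% inhibition of growth.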 Activity calls are given as the source filed them. Cut-off read from the data, not from the text of the source: active = GI50 up to about 1.1 µM and inactive = higher.

Assays:
Assay in all cases: NCI anticancer screen, dose series, 48 h
XF498 = system: XF498
U-251 = system: U-251
KM-20L2 = system: KM-20L2
TK-10 = system: TK-10
HCT-15 = system: HCT-15
M14 = system: M14
Malme-3M = system: Malme-3M
SF-295 = system: SF-295
MOLT-4 = system: MOLT-4
M19-MEL = system: M19-MEL
OVCAR-4 = system: OVCAR-4
SK-OV-3 = system: SK-OV-3
A498 = system: A498
KM12 = system: KM12
SK-MEL-28 = system: SK-MEL-28
OVCAR-8 = system: OVCAR-8
NCI-H460 = system: NCI-H460
SN12C = system: SN12C
OVCAR-5 = system: OVCAR-5
A549 = system: A549
SNB-75 = system: SNB-75
DLD-1 = system: DLD-1
SK-MEL-2 = system: SK-MEL-2
DMS-114 = system: DMS-114
SNB-78 = system: SNB-78
786-0 = system: 786-0
CCRF-CEM = system: CCRF-CEM
EKVX = system: EKVX
NCI-H23 = system: NCI-H23
SW-620 = system: SW-620
HOP-62 = system: HOP-62
NCI-H522 = system: NCI-H522
RPMI-8226 = system: RPMI-8226
SNB-19 = system: SNB-19
COLO 205 = system: COLO 205
UO-31 = system: UO-31
ACHN = system: ACHN
HT-29 = system: HT-29
K562 = system: K562
IGROV-1 = system: IGROV-1
UACC-62 = system: UACC-62
CAKI-1 = system: CAKI-1
SK-MEL-5 = system: SK-MEL-5
SF-268 = system: SF-268
UACC-257 = system: UACC-257
HCC 2998 = system: HCC 2998
OVCAR-3 = system: OVCAR-3
LXFL 529 = system: LXFL 529
HL-60 = system: HL-60
NCI-H226 = system: NCI-H226
LOX IMVI = system: LOX IMVI
HCT-116 = system: HCT-116
SR = system: SR
SF-539 = system: SF-539
HOP-92 = system: HOP-92
DMS-273 = system: DMS-273

Q: For CCOC(=O)/C(=C/c1ccc(OC)c(OC)c1)C(=O)c1ccccc1, which GI50 (XF498) is on record?
A: 14.9 µM (inactive)

Q: And the GI50 (U-251)?
A: 19.5 µM (inactive)

Q: And the GI50 (KM-20L2)?
A: 18.4 µM (inactive)

Q: What about the GI50 (TK-10) of the same compound?
A: 26.4 µM (inactive)

Q: And the GI50 (HCT-15)?
A: 15.1 µM

Q: And the GI50 (M14)?
A: 13.9 µM (inactive)

Q: And the GI50 (Malme-3M)?
A: 76.6 µM (inactive)

Q: What about the GI50 (SF-295) of the same compound?
A: 21.2 µM (inactive)

Q: And the GI50 (MOLT-4)?
A: 17.5 µM (inactive)

Q: What about the GI50 (M19-MEL) of the same compound?
A: 19 µM (inactive)

Q: And the GI50 (OVCAR-4)?
A: 21.4 µM (inactive)

Q: And the GI50 (SK-OV-3)?
A: 24.2 µM (inactive)

Q: What about the GI50 (A498) of the same compound?
A: 22.3 µM (inactive)

Q: What about the GI50 (KM12) of the same compound?
A: 14.9 µM (inactive)

Q: What about the GI50 (SK-MEL-28) of the same compound?
A: 13.5 µM (inactive)

Q: And the GI50 (OVCAR-8)?
A: 22.3 µM (inactive)

Q: And the GI50 (NCI-H460)?
A: 33.3 µM (inactive)

Q: And the GI50 (SN12C)?
A: > 10 µM (inactive)

Q: And the GI50 (OVCAR-5)?
A: 17.5 µM (inactive)

Q: What about the GI50 (A549) of the same compound?
A: 28.2 µM (inactive)

Q: What about the GI50 (SNB-75) of the same compound?
A: 12.4 µM (inactive)

Q: What about the GI50 (DLD-1) of the same compound?
A: 15.4 µM (inactive)

Q: What about the GI50 (SK-MEL-2) of the same compound?
A: 38.5 µM (inactive)

Q: What about the GI50 (DMS-114) of the same compound?
A: 15.2 µM (inactive)

Q: And the GI50 (SNB-78)?
A: 17.1 µM (inactive)

Q: What about the GI50 (786-0) of the same compound?
A: > 100 µM (inactive)

Q: And the GI50 (CCRF-CEM)?
A: 9.64 µM (inactive)

Q: What about the GI50 (EKVX) of the same compound?
A: 25.8 µM (inactive)

Q: And the GI50 (NCI-H23)?
A: 17.7 µM (inactive)

Q: And the GI50 (SW-620)?
A: 19.4 µM (inactive)

Q: What about the GI50 (HOP-62) of the same compound?
A: 19.5 µM (inactive)

Q: What about the GI50 (NCI-H522) of the same compound?
A: 13.9 µM (inactive)

Q: What about the GI50 (RPMI-8226) of the same compound?
A: 10.5 µM (inactive)

Q: And the GI50 (SNB-19)?
A: 15.8 µM (inactive)

Q: And the GI50 (COLO 205)?
A: 16.9 µM (inactive)

Q: And the GI50 (UO-31)?
A: 14.4 µM (inactive)

Q: And the GI50 (ACHN)?
A: 27.9 µM (inactive)

Q: What about the GI50 (HT-29) of the same compound?
A: 13.6 µM (inactive)

Q: And the GI50 (K562)?
A: 10.3 µM (inactive)

Q: And the GI50 (IGROV-1)?
A: 20.2 µM (inactive)

Q: And the GI50 (UACC-62)?
A: 13.2 µM (inactive)

Q: And the GI50 (CAKI-1)?
A: 14.7 µM (inactive)

Q: What about the GI50 (SK-MEL-5) of the same compound?
A: 14.3 µM (inactive)

Q: And the GI50 (SF-268)?
A: 14.8 µM (inactive)

Q: What about the GI50 (UACC-257) of the same compound?
A: 15.1 µM (inactive)

Q: What about the GI50 (HCC 2998) of the same compound?
A: 18.3 µM (inactive)

Q: And the GI50 (OVCAR-3)?
A: 18 µM (inactive)

Q: What about the GI50 (LXFL 529) of the same compound?
A: 12.2 µM (inactive)

Q: For O=C(CSc1nc(-c2ccccc2)c(-c2ccccc2)[nH]1)N/N=C/c1ccc([N+](=O)[O-])cc1, which GI50 (XF498) is on record?
A: 13.2 µM (inactive)

Q: And the GI50 (U-251)?
A: 14.1 µM (inactive)

Q: What about the GI50 (HL-60) of the same compound?
A: 34.8 µM (inactive)

Q: And the GI50 (KM-20L2)?
A: 8.87 µM (inactive)

Q: And the GI50 (TK-10)?
A: 15.7 µM (inactive)

Q: What about the GI50 (HCT-15) of the same compound?
A: 14 µM

Q: What about the GI50 (M14) of the same compound?
A: 17.4 µM (inactive)

Q: And the GI50 (Malme-3M)?
A: 18.4 µM (inactive)

Q: What about the GI50 (SF-295) of the same compound?
A: 19.8 µM (inactive)

Q: What about the GI50 (NCI-H226) of the same compound?
A: 13.6 µM (inactive)

Q: And the GI50 (MOLT-4)?
A: 18.6 µM (inactive)

Q: What about the GI50 (LOX IMVI) of the same compound?
A: 15.9 µM (inactive)

Q: What about the GI50 (M19-MEL) of the same compound?
A: 17.1 µM (inactive)

Q: And the GI50 (OVCAR-4)?
A: 23 µM (inactive)

Q: What about the GI50 (SK-OV-3) of the same compound?
A: 14.5 µM (inactive)

Q: What about the GI50 (A498) of the same compound?
A: 14 µM (inactive)

Q: And the GI50 (HCT-116)?
A: 18.7 µM (inactive)

Q: What about the GI50 (KM12) of the same compound?
A: 17.3 µM (inactive)

Q: And the GI50 (SK-MEL-28)?
A: 15.6 µM (inactive)

Q: What about the GI50 (OVCAR-8) of the same compound?
A: 10.3 µM (inactive)

Q: And the GI50 (NCI-H460)?
A: 19.4 µM (inactive)

Q: And the GI50 (SN12C)?
A: 16.2 µM (inactive)

Q: And the GI50 (SR)?
A: 30.9 µM (inactive)

Q: And the GI50 (A549)?
A: 29.6 µM (inactive)

Q: And the GI50 (SNB-75)?
A: 21.8 µM (inactive)

Q: And the GI50 (DLD-1)?
A: 18.1 µM (inactive)

Q: And the GI50 (SF-539)?
A: 16 µM (inactive)

Q: And the GI50 (SK-MEL-2)?
A: 13.8 µM (inactive)

Q: What about the GI50 (DMS-114) of the same compound?
A: 18.5 µM (inactive)

Q: What about the GI50 (SNB-78) of the same compound?
A: 21.2 µM (inactive)

Q: What about the GI50 (786-0) of the same compound?
A: 16.8 µM (inactive)

Q: And the GI50 (CCRF-CEM)?
A: 21.4 µM (inactive)

Q: What about the GI50 (NCI-H23) of the same compound?
A: 14.7 µM (inactive)

Q: What about the GI50 (HOP-62) of the same compound?
A: 17.7 µM (inactive)

Q: What about the GI50 (NCI-H522) of the same compound?
A: 14.5 µM (inactive)

Q: And the GI50 (RPMI-8226)?
A: 16.6 µM (inactive)

Q: What about the GI50 (COLO 205) of the same compound?
A: 16.7 µM (inactive)

Q: What about the GI50 (UO-31) of the same compound?
A: 14.7 µM (inactive)

Q: And the GI50 (ACHN)?
A: 26.7 µM (inactive)

Q: And the GI50 (HOP-92)?
A: 13.8 µM (inactive)

Q: What about the GI50 (HT-29) of the same compound?
A: 19.2 µM (inactive)

Q: What about the GI50 (IGROV-1) of the same compound?
A: 17.6 µM (inactive)

Q: What about the GI50 (SK-MEL-5) of the same compound?
A: 17.3 µM (inactive)

Q: What about the GI50 (DMS-273) of the same compound?
A: 14.1 µM (inactive)

Q: What about the GI50 (SF-268) of the same compound?
A: 16.2 µM (inactive)

Q: And the GI50 (UACC-257)?
A: 19 µM (inactive)

Q: What about the GI50 (OVCAR-3) of the same compound?
A: 15.1 µM (inactive)

Q: What about the GI50 (LXFL 529) of the same compound?
A: 20.4 µM (inactive)
